Usually IC50 stands for the concentration at which inhibition is half-maximal.

The test concerns the target T1, recombinant mouse NPY5-receptor (mNPY5) (Mus musculus, UniProt O70342).
T1 construct: The full-length cDNA encoding the mouse NPY5 (mNPY5) receptor was amplified from mouse brain cDNA; expressed in transfected cells; membrane preparation
T1 sequence (O70342 1-466): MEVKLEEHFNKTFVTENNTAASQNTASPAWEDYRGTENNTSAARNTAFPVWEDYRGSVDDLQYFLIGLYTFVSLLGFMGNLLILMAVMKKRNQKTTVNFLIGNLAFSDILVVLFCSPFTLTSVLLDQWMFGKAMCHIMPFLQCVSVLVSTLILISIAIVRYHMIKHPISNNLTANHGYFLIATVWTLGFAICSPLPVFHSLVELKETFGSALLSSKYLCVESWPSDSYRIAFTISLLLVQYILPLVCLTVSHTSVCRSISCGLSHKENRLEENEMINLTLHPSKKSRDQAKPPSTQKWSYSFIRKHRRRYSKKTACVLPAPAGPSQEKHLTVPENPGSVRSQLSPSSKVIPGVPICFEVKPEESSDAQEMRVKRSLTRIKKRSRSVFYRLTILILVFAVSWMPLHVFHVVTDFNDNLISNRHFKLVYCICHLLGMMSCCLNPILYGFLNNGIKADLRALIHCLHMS
Nature of the test: Radioligand competition binding. The conditions noted are these: HEK293 membranes expressing mNPY5; displacement of 100 pM [125I]labeled PYY; 1 h at 22° C.; read-out: NPY5-R (mouse) IC50. An excerpt: The full-length cDNA encoding the mouse NPY5 (mNPY5) receptor was amplified from mouse brain cDNA using specific primers, designed based on the published sequence, and Pfu DNA-Polymerase. The amplification product was subcloned into the mammalian expression vector pcDNA3 using Eco RI and XhoI restriction sites. Positive clones were sequenced and one clone, encoding the published sequence was selected for generation of stable cell clones. The sequence is published in Borowsky B., et al., “Molecular Biology and Pharmacology of Multiple NPY Y5 Receptor Species Homologs”, Regul. Pept. 75-76:45-53 (1998).
Human embryonic kidney 293 (HEK293) cells were transfected with 10 μg mNPY5 DNA using the lipofectamine reagent. Two days after transfection, geneticin selection (1 mg/ml) was initiated and several stable clones were isolated. One clone was further used for pharmacological characterization.
Human embryonic kidney 293 cells (HEK293), expressing recombinant mouse NPY5-receptor (mNPY5) were broken by three freeze/thawing cycles in hypotonic Tris buffer (5 mM, pH 7.4, 1 mM MgCl2), homogenized and centrifuged at 72,000×g for 15 min. The pellet was washed twice with 75 mM Tris buffer, pH 7.4, containing 25 mM MgCl2 and 250 mM sucrose, 0.1 mM phenylmethylsulfonylfluoride and 0.1 mM 1,10-pheneanthrolin, resuspended in the same buffer and stored in aliquots at −80° C. Protein was determined according to the method of Lowry using bovine serum albumine (BSA) as a standard. […]
(In general: Displacement assays read how much labelled ligand stays bound in the presence of the test substance.)

Take `N#Cc1cccc(Nc2ncc(C(=O)c3ccc(F)cc3)s2)c1` [Example 8, 3-[5-(4-Fluoro-benzoyl)-thiazol-2-ylamino]-benzonitrile]: the IC50 came to 66 nM.

As for `O=C(c1cnc(Nc2cccc(C(F)(F)F)c2)s1)c1ccccc1Cl` [Example 29, (2-Chloro-phenyl)-[2-(3-trifluoromethyl-phenylamino)-thiazol-5-yl]-methanone], the IC50 turned out to be 8 nM.

In the case of `CC(=O)c1cccc(Nc2ncc(C(=O)c3ccccc3C)s2)c1` [Example 61, 1-{3-[5-(2-Methyl-benzoyl)-thiazol-2-ylamino]-phenyl}-ethanone], the IC50 was determined as 86 nM.

These data come from patent publication US7253197B2, “Aminothiazole derivatives” (Hoffmann-La Roche Inc., priority 2002, dated 2007).
